This assay deals with T. gondii γH2A.X. In words: Western blot of γH2A.X in intracellular tachyzoites. It counts as cell-based, Toxoplasma gondii. To be noted: 2 days. The protocol: Monolayers of hTERT cells grown in 12-well plates were infected with 5 × 10^6 tachyzoites of the RH Δhxgprt strain. After the invasion process, cells were washed with PBS and incubated with 3 (7.5 μM), CPT (10 μM), 3 (7.5 μM) plus CPT (10 μM), or the vehicle (DMSO), diluted in supplemented DMEM for 2 days. Then, infected cells were harvested by trypsinization, centrifuged, resuspended in PBS, and lysed by freeze–thaw cycling. Samples were resolved by SDS-PAGE (15%), and a western blot assay was conducted. Membranes were incubated (1 h, RT) with rabbit anti-T. gondii γH2A.X (1:500) ([Contreras et al., 2021]) and murine anti-SAG1 (Novus Biologicals, 1:500). Finally, they were washed several times with PBS-T and incubated with alkaline phosphatase-conjugated anti-rabbit or anti-mouse secondary antibodies, diluted to 1:4,000 (Santa Cruz Biotechnology). Immunoreactive protein bands were visualized by the NBT-BCIP (Promega) method. Densitometric analysis of scanned images was performed using the Image-Pro Plus software.

Take `COc1ccc2c3ccnc(C)c3n(C)c2c1` [Compound 3, 9-methyl-harmine]: under “3 7.5 μM plus CPT 10 μM”, the “γH2A.X levels when co-administered with CPT” value was “reduced them significantly”. Also, the γH2A.X levels result (intracellular tachyzoites, CPT 10 μM or 3 7.5 μM alone) is listed as “decreased basal levels”.

Source of the values: paper PMC8375385, “In vitro Effect of Harmine Alkaloid and Its N-Methyl Derivatives Against Toxoplasma gondii” (Frontiers in Microbiology, 2021).
